Reference: US7189701B1, “Tetrapeptide stimulating functional activity of neurons pharmacological agent based thereon and method of use thereof” (Sankt-Petersburgskaya Obschestvennaya Organizatsiya …, priority 1999, dated 2007)
Residues, ends and D or L forms follow the SMILES beside them.

Test system: cerebral cortex explants
Assay: Development of cerebral cortex explants (area index)
Assay type: cell-based, chicken embryos
Procedure: The experiments were carried out on 73 cerebral cortex fragments of 10–11 day old chicken embryos. Culture medium for the explants comprised 35% Eagle's solution, 25% foetal calf serum, 35% Henks' solution, 5% chicken embryonic extract. The medium was also added glucose (0.6%), insulin (0.5 IU/ml), penicillin (100 IU/ml), glutamine (2 mM). The cerebral cortex fragments were placed in the said medium and cultivated in Petri dishes in a thermostat at 36.7° C. for 2 days. L-Ala-L-Glu-L-Asp-L-Pro (SEQ ID NO:1) tetrapeptide and Cerebrolysin in concentrations 0.5, 1, 2, 20, 50, 100, 200, 400, 800, 1000 ng/ml were added into the experimental medium. Area index (AI) served as a criterion of biological activity and reflected the ratio of the entire explant area including the growth zone to the initial area of the cortex fragment. Student's t-criterion was applied to assess the significance of differences between the compared mean AI values. AI values were expressed percent. The control AI value was taken for 100%.
The growth zone of the control cortex explants included short axons, neuroglia cells migrating to the periphery and fibroblast-like cells.
Following series of experiments were performed to study the direct effect of the drugs on the cerebral cortex fragments.
Cerebrolysin in various concentrations was added to the culture medium of the cerebral cortex explants of the chicken embryos. […]

## C[C@H](N)C(=O)N[C@@H](CCC(=O)O)C(=O)N[C@@H](CC(=O)O)C(=O)N1CCC[C@H]1C(=O)O [L-Ala-L-Glu-L-Asp-L-Pro tetrapeptide, L-Alanyl-L-Glutamyl-L-Aspartyl-L-Proline] (H-AEDP-OH)
20 ng/ml
  increase in the explant area index (AI) in comparison with control: 40±7%
Effective concentration
  concentration stimulating cultivated cortical fragments: 20 ng/mL
